The text below walks through data of patent US6444617B1, “Fused-heterocycle dicarboxylic acid diamide derivatives or salts thereof, herbicide and usage thereof” (Nihon Nohyaku Co., Ltd., priority 1998, dated 2002).

Assay type in all cases: in vivo
In data set [1] the test system is barnyard grass (Echinochloa crus-galli Beauv.). The experiment in a line: Test Example 1: herbicidal effect on paddy field weeds before emergence. To be noted: Dosage 5 kg/ha. In a few lines: (§1)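 Soil in pots is brought to paddy state and seeded with barnyard grass and bulrush; before germination, the soil receives a predetermined dosage of test compound in solution. After twenty-one days, control rate relative to untreated pots is calculated and graded.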

Data set [2] concerns bulrush (Scirpus juncoides Roxb.). The data set is described as above. Particulars: Dosage 5 kg/ha. In a few lines:
as §1

Data set [3] has as its system barnyard grass (Echinochloa crus-galli Beauv.). Put plainly: Test Example 2: herbicidal effect on paddy field weeds after emergence. To be noted: Dosage 5 kg/ha; one-leaved stage; 21 days after treatment. In a few lines: (§2)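 Weeds in flooded paddy-soil pots were grown to the one-leaved stage, then the soil was treated with the compound solution at a set dosage.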
Data set [4] deals with bulrush (Scirpus juncoides Roxb.). The description is as above. Particulars: Dosage 5 kg/ha; one-leaved stage; 21 days after treatment. In a few lines: as §2
Data set [5] has as its system monochoria (Monochoria vaginalis Presl). The data set is described as above. Particulars: Dosage 5 kg/ha; one-leaved stage; 21 days after treatment. In a few lines: as §2
Data set [6] relates to barnyard grass (Echinochloa crus-galli Beauv.), Ec. The experiment in a line: Test Example 3: herbicidal effect on upland weeds before emergence. Particulars: dosage 5 kg/ha. The method in brief: (§3)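 Test compound, formulated as a liquid at a fixed concentration, is sprayed before weed emergence. Two weeks later, kill rate is derived and herbicidal activity is rated.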
In data set [7] the test system is bird's eye speedwell (Veronica persica Poir.), Vp. The description is as above. Particulars: dosage 5 kg/ha. The method in brief: as §3
The subject of data set [8] is cleavers (Galium aparine L.), Ga. Described as above. To be noted: dosage 5 kg/ha. In a few lines: as §3
Data set [9] relates to cocklebur (Xanthium strumarium L.), Xs. The description is as above. To be noted: dosage 5 kg/ha. The method in brief:
as §3

For data set [10], the system named is forxtail grass (Alopecurus aequalis var. amurensis Ohwi), Am. Described as above. Particulars: foxtail grass, dosage 5 kg/ha. In a few lines:
as §3

Data set [11] relates to velvetleaf (Abutilon theophtasti L.), At. The data set is described as above. Particulars: dosage 5 kg/ha. The method in brief:
as §3

Another data set deals with soybean plant (So). The experiment in a line: Test Example 3: phytotoxicity to upland crop plants, treatment before emergence. Particulars: dosage 5 kg/ha. The method in brief:
(§4)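 Pre-emergence treatment: a liquid preparation containing a prescribed concentration of test compound was sprayed, and injury to soybean and wheat was assessed 14 days later. Phytotoxicity was judged against a scoring criterion, alongside weed-killing rate.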

Another data set concerns wheat (Wh). Described as above. To be noted: dosage 5 kg/ha. The method in brief:
as §4

The test system of data set [12] is barnyard grass (Echinochloa crus-galli Beauv.), Ec. Put plainly: Test Example 4: herbicidal effect on upland weeds after emergence. To be noted: dosage 5 kg/ha; sprayed after emergence; judged 14 days after treatment. The method in brief:
(§5)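 Weeds, soybean and wheat were sown in soil-filled vats, covered with soil and grown to set leaf stages before a post-emergence spray of an agent containing the compound at a prescribed concentration. Weed-killing rate and crop phytotoxicity were assessed 14 days after treatment.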

In data set [13] the test system is bird's eye speedwell (Veronica persica Poir.), Vp. Described as above. Particulars: dosage 5 kg/ha; sprayed after emergence; judged 14 days after treatment. The method in brief: as §5
Data set [14] deals with cleavers (Galium aparine L.), Ga. The description is as above. To be noted: dosage 5 kg/ha; sprayed after emergence; judged 14 days after treatment. In a few lines:
as §5

Data set [15] concerns cocklebur (Xanthium strumarium L.), Xs. Described as above. Particulars: dosage 5 kg/ha; sprayed after emergence; judged 14 days after treatment. In a few lines: as §5
Data set [16] deals with forxtail grass (Alopecurus aequalis var. amurensis Ohwi), Am. The description is as above. To be noted: dosage 5 kg/ha; sprayed after emergence; judged 14 days after treatment. The method in brief: as §5
Data set [17] has as its system velvetleaf (Abutilon theophtasti L.), At. Described as above. Particulars: dosage 5 kg/ha; sprayed after emergence; judged 14 days after treatment. In a few lines:
as §5

The next data set concerns soybean plant. The experiment in a line: Test Example 4: phytotoxicity to upland crop plants, treatment after emergence. To be noted: dosage 5 kg/ha, sprayed after emergence, judged 14 days after treatment. The method in brief: (§6)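 Seeds sown in soil and covered. Plants raised to specified leaf stages. Agent with test compound at a prescribed concentration sprayed. Herbicidal effect and crop damage scored after 14 days as weed-killing rate.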

In a further data set the test system is wheat. Described as above. Particulars: dosage 5 kg/ha, sprayed after emergence, judged 14 days after treatment. In a few lines: as §6

As to `CCNC(=O)c1nc2ccsc2cc1C(=O)Nc1c(CC)ccc(Cl)c1CC` [compound 870], the “Pre-emergence treatment Barnyard grass (herbicidal effect)” value (from here on “Pre-emergence treatment Barnyard grass”) in data set [1] was 5 (Weed-killing rate is 100%.). The “Pre-emergence treatment Bulrush (herbicidal effect)” value (from here on “Pre-emergence treatment Bulrush”) in data set [2] was 5 (Weed-killing rate is 100%.). In addition, the “Post-emergence treatment Barnyard grass (herbicidal effect)” value (shortened to “Post-emergence treatment Barnyard grass”) in [3] is given as 5 (Weed-killing rate is 100%.). Besides, in [4], the “Post-emergence treatment Bulrush (herbicidal effect)” value (“Post-emergence treatment Bulrush” below) is recorded as 5 (Weed-killing rate is 100%.). Also, the “Post-emergence treatment Monochoria (herbicidal effect)” value (shortened to “Post-emergence treatment Monochoria”) in data set [5] is 5 (Weed-killing rate is 100%.). Further, the “Herbicidal effect Ec” value in data set [6] and in [12] was 5 (Weed-killing rate is 100%.) in each case. The “Herbicidal effect Vp” value in data set [7] and in data set [13] was 5 (Weed-killing rate is 100%.) each time. Besides, the “Herbicidal effect Ga” value in data set [8] and in data set [14] was 5 (Weed-killing rate is 100%.) each time. The “Herbicidal effect Xs” value in data set [9] and in data set [15] was 5 (Weed-killing rate is 100%.) each time. In addition, the “Herbicidal effect Am” value in data set [10] and in [16] was 5 (Weed-killing rate is 100%.) throughout. Besides, the “Herbicidal effect At” value in data set [11] and in data set [17] was 5 (Weed-killing rate is 100%.) each time. Moreover, the “Phytotoxicity So” value with soybean plant (So) and in the data set on soybean plant was 3 (Crop-killing rate is 70-89%.) in each case. Moreover, the “Phytotoxicity Wh” value with wheat (Wh) and in the data set on wheat was 4 (Crop-killing rate is 90-99%.) throughout.
For the compound `CCCNC(=O)c1nc2ccsc2cc1C(=O)Nc1c(CC)ccc(Cl)c1CC` [compound 871], in [1], the “Pre-emergence treatment Barnyard grass” value was 5 (Weed-killing rate is 100%.). Moreover, in data set [2], the “Pre-emergence treatment Bulrush” value is recorded as 5 (Weed-killing rate is 100%.). Besides, the “Post-emergence treatment Barnyard grass” value in data set [3] is listed as 5 (Weed-killing rate is 100%.). Further, the “Post-emergence treatment Bulrush” value in data set [4] was 5 (Weed-killing rate is 100%.). Besides, the “Post-emergence treatment Monochoria” value in data set [5] is recorded as 5 (Weed-killing rate is 100%.). Moreover, the “Herbicidal effect Ec” value in data set [6] and in data set [12] was 5 (Weed-killing rate is 100%.) in each case. The “Herbicidal effect Vp” value in [7] and in [13] was 5 (Weed-killing rate is 100%.) each time. Further, the “Herbicidal effect Ga” value in data set [8] and in data set [14] was 5 (Weed-killing rate is 100%.) throughout. Moreover, the “Herbicidal effect Xs” value in data set [9] and in [15] was 5 (Weed-killing rate is 100%.) each time. The “Herbicidal effect Am” value in data set [10] and in data set [16] was 5 (Weed-killing rate is 100%.) each time. The “Herbicidal effect At” value in data set [11] and in data set [17] was 5 (Weed-killing rate is 100%.) in each case. The “Phytotoxicity So” value in the data set with soybean plant (So) and in the data set on soybean plant was 4 (Crop-killing rate is 90-99%.) throughout. For the same compound, the “Phytotoxicity Wh” value in the data set with wheat (Wh) and in the data set with wheat was 5 (Crop-killing rate is 100%.) in each case.
In the case of `Cc1c(Cl)cccc1NC(=O)c1cc2sccc2nc1C(=O)NC1CCCC1` [compound 892], the “Pre-emergence treatment Barnyard grass” value in [1] is listed as 5 (Weed-killing rate is 100%.). In addition, the “Pre-emergence treatment Bulrush” value in data set [2] is given as 5 (Weed-killing rate is 100%.). In addition, the “Post-emergence treatment Barnyard grass” value in [3] is 5 (Weed-killing rate is 100%.). Further, the “Post-emergence treatment Bulrush” value in [4] is on record as 5 (Weed-killing rate is 100%.). Moreover, the “Post-emergence treatment Monochoria” value in data set [5] was 5 (Weed-killing rate is 100%.). The “Herbicidal effect Ec” value in data set [6] and in [12] was 5 (Weed-killing rate is 100%.) in each case. Moreover, the “Herbicidal effect Vp” value in data set [7] and in data set [13] was 5 (Weed-killing rate is 100%.) in each case. Further, the “Herbicidal effect Ga” value is 5 (Weed-killing rate is 100%.) in data set [8] and 4 (Weed-killing rate is 90-99%.) in data set [14]. Further, the “Herbicidal effect Xs” value in [9] and in data set [15] was 4 (Weed-killing rate is 90-99%.) in each case. The “Herbicidal effect Am” value in data set [10] and in [16] was 5 (Weed-killing rate is 100%.) throughout. For the same compound, the “Herbicidal effect At” value in data set [11] and in data set [17] was 5 (Weed-killing rate is 100%.) each time. The “Phytotoxicity So” value in the data set on soybean plant (So) and with soybean plant was 3 (Crop-killing rate is 70-89%.) throughout. Also, the “Phytotoxicity Wh” value in the data set with wheat (Wh) and with wheat was 4 (Crop-killing rate is 90-99%.) each time.
Turning to `CCNC(=O)c1nc2ccn(OC)c2cc1C(=O)Nc1c(CC)ccc(Cl)c1CC` [compound 894], the “Pre-emergence treatment Barnyard grass” value in data set [1] is 5 (Weed-killing rate is 100%.). Also, the “Pre-emergence treatment Bulrush” value in data set [2] is on record as 5 (Weed-killing rate is 100%.). Besides, in [3], the “Post-emergence treatment Barnyard grass” value was 5 (Weed-killing rate is 100%.). Moreover, the “Post-emergence treatment Bulrush” value in [4] was 5 (Weed-killing rate is 100%.). Also, in data set [5], the “Post-emergence treatment Monochoria” value was 5 (Weed-killing rate is 100%.). Also, the “Herbicidal effect Ec” value in data set [6] and in data set [12] was 5 (Weed-killing rate is 100%.) throughout. The “Herbicidal effect Vp” value in [7] and in data set [13] was 5 (Weed-killing rate is 100%.) each time. The “Herbicidal effect Ga” value in data set [8] and in [14] was 5 (Weed-killing rate is 100%.) throughout. In addition, the “Herbicidal effect Xs” value in [9] was 5 (Weed-killing rate is 100%.); in [15], 4 (Weed-killing rate is 90-99%.). Besides, the “Herbicidal effect Am” value in data set [10] and in data set [16] was 5 (Weed-killing rate is 100%.) each time. Besides, the “Herbicidal effect At” value in [11] and in [17] was 5 (Weed-killing rate is 100%.) each time. The “Phytotoxicity So” value with soybean plant (So) and in the data set with soybean plant was 4 (Crop-killing rate is 90-99%.) each time. The “Phytotoxicity Wh” value with wheat (Wh) and with wheat was 5 (Crop-killing rate is 100%.) throughout.
